The record followed here is ChEMBL document CHEMBL5370597, “Fungal Duel between Penicillium brasilianum and Aspergillus nomius Results in Dual Induction of Miktospiromide A and Kitrinomycin A” (J Nat Prod, 2023).

The subject of one data set is DU-145. The experiment in a line: Cytotoxicity against human DU-145 cells incubated for 72 hrs by resazurin staining based microplate reader assay. Format: functional. (In general: Resazurin is reduced to fluorescent resorufin, in cell work by metabolically active cells.)
In another data set the test system is MCF7. Nature of the data set: Cytotoxicity against human MCF7 cells incubated for 72 hrs by resazurin staining based microplate reader assay. Format: functional.
In another data set the test system is NFF. Nature of the data set: Cytotoxicity against human NFF cells incubated for 72 hrs by resazurin staining based microplate reader assay. Format: toxicity, cell-based.
In another data set the test system is Tritrichomonas foetus. Nature of the data set: Antiprotozoal activity against Tritrichomonas foetus KV-1 strain assessed as inhibition of protozoal growth measured after 72 hrs under anaerobic conditions. Format: functional.
The subject of another data set is Staphylococcus aureus. The experiment in a line: Antibacterial activity against Staphylococcus aureus ATCC 25923 assessed as bacterial growth inhibition incubated for 48 hrs by resazurin staining based microplate reader assay. Format: functional.
A further data set concerns Bacillus subtilis. The experiment in a line: Antibacterial activity against Bacillus subtilis ATCC 6633 assessed as bacterial growth inhibition incubated for 48 hrs by resazurin staining based microplate reader assay. Format: functional.
The subject of a further data set is Escherichia coli. Nature of the data set: Antibacterial activity against Escherichia coli ATCC 25922 assessed as bacterial growth inhibition incubated for 48 hrs by resazurin staining based microplate reader assay. Format: functional.
The next data set relates to Candida albicans. The experiment in a line: Antifungal activity against Candida albicans ATCC 10231 assessed as fungal growth inhibition incubated for 48 hrs by bromocresol green staining based microplate reader assay. Format: functional.
The next data set has as its system Saccharomyces cerevisiae. Nature of the data set: Antifungal activity against Saccharomyces cerevisiae ATCC 9763 assessed as fungal growth inhibition incubated for 48 hrs by bromocresol green staining based microplate reader assay. Format: functional.
A short description of data set [1]: Cytotoxicity against mouse NS-1 cells incubated for 72 hrs by resazurin staining based microplate reader assay. Format: functional.
The test system of another data set is Giardia intestinalis. The experiment in a line: Anti-protozoal activity against Giardia duodenalis 713 assessed as inhibition of protozoal growth measured after 72 hrs under anaerobic conditions. Format: functional.
For data set [2], the system named is Aspergillus nomiae. Nature of the data set: Antifungal activity against Aspergillus nomius MST-FP2004 assessed as fungal growth rate at 20 ug by disc diffusion assay. Format: functional, organism-based. The following applies: dose 20.0 µg.
In data set [3] the test system is Aspergillus nomiae. The experiment in a line: Antifungal activity against Aspergillus nomius MST-FP2004 assessed as change in morphology at 20 ug by disc diffusion assay. Format: functional, organism-based. The following applies: dose 20.0 µg. For orientation: A growth-free zone around the sample is the usual read-out of agar diffusion tests.
For data set [4], the system named is Aspergillus nomiae. Nature of the data set: Antifungal activity against Aspergillus nomius MST-FP2004 assessed as reduction in growth diameter at 20 ug by disc diffusion assay relative to control. Format: functional. Also on record: scale not given: the % may be the effect or the level left. The following applies: dose 20 µg.
The subject of data set [5] is Penicillium brasilianum. Nature of the data set: Antifungal activity against Penicillium brasilianum MST-FP1927 assessed as change in morphology at 20 ug by disc diffusion assay. Format: functional, organism-based. The conditions noted are these: dose 20.0 µg.
Data set [6] concerns Penicillium brasilianum. Nature of the data set: Antifungal activity against Penicillium brasilianum MST-FP1927 assessed as fungal growth rate at 20 ug by disc diffusion assay. Format: functional, organism-based. The following applies: dose 20.0 µg.

In brackets after ≈: the same amount, converted by molar mass. Activity calls are given as the source filed them. No cut-off for these calls is given here.

As to `CN[C@@H]1C[C@H]2O[C@@](C)([C@@H]1OC)n1c3ccccc3c3c4c(c5c6ccccc6n2c5c31)C(=O)NC4` [STAUROSPORINE], the LD99 was determined as 3.4 µM with DU-145, 54 µM with MCF7, 0.09 µM in the data set on NFF and 1.2 µM with Tritrichomonas foetus.
For the compound GENTAMICIN, the MIC came out at 0.38 µg/mL in the data set with Staphylococcus aureus, 0.38 µg/mL in the data set on Bacillus subtilis and 0.81 µg/mL in the data set with Escherichia coli.
As for `COC(=O)c1oc(=O)c2c(O)c3c(O)c(C(C)=O)oc3cc2c1O`, the MIC in the data set with Staphylococcus aureus was over 100 µg/mL; in the data set with Bacillus subtilis, 42 µg/mL (≈ 126 µM); in the data set on Escherichia coli, over 100 µg/mL; in the data set with Candida albicans it was over 100 µg/mL; in the data set on Saccharomyces cerevisiae it was over 100 µg/mL. Further, the LD99 is 7.8 µM in data set [1]; over 100 µM in the data set on DU-145; over 100 µM in the data set with MCF7; over 100 µM in the data set on NFF; 4.8 µM in the data set on Tritrichomonas foetus; 37 µM with Giardia intestinalis. The result with Aspergillus nomiae [2] and with Aspergillus nomiae [3] was inactive. In the data set on Aspergillus nomiae [4], the Activity was about 7%.
Consider `CO[C@@]12[C@H](COC(N)=O)C3=C(C(=O)C(C)=C(N)C3=O)N1C[C@@H]1N[C@@H]12` [MITOMYCIN], for which the LD99 in [1] came to 0.93 µM.
`C[C@@H]1[C@H](O)[C@@H](C)/C=C/C=C/C=C/C=C/C=C/C=C/C=C/[C@H](O[C@@H]2O[C@H](C)[C@@H](O)[C@H](N)[C@@H]2O)C[C@@H]2O[C@](O)(C[C@@H](O)C[C@@H](O)[C@H](O)CC[C@@H](O)C[C@@H](O)CC(=O)O[C@H]1C)C[C@H](O)[C@H]2C(=O)O` [AMPHOTERICIN B]: the MIC came to 0.09 µg/mL (≈ 0.0974 µM) in the data set with Candida albicans and 0.28 µg/mL (≈ 0.303 µM) in the data set with Saccharomyces cerevisiae.
Consider `COC(=O)c1oc(=O)c2c(O)c(C(=O)O)c(O)cc2c1O`, for which the MIC in the data set on Staphylococcus aureus, with Bacillus subtilis, with Escherichia coli, in the data set with Candida albicans and with Saccharomyces cerevisiae was over 100 µg/mL in each case. Besides, the LD99 (in [1]; with DU-145; in the data set on MCF7; with NFF; in the data set with Tritrichomonas foetus; in the data set on Giardia intestinalis) was over 100 µM in each case. The outcome with Aspergillus nomiae [2] and in the data set on Aspergillus nomiae [3] was inactive.
As to `Cc1ncc([N+](=O)[O-])n1CCO` [METRONIDAZOLE], the LD99 in the data set on Giardia intestinalis was 9.1 µM.
Regarding `CCCCCCC/C=C/C1=CC(=O)[C@]2(O1)C(=O)N[C@@](C)(O)[C@H]2O`, the MIC in the data set on Staphylococcus aureus was 50 µg/mL (≈ 155 µM); with Bacillus subtilis, 25 µg/mL (≈ 77.3 µM); in the data set with Escherichia coli, over 100 µg/mL; in the data set on Candida albicans, over 100 µg/mL; in the data set on Saccharomyces cerevisiae, over 100 µg/mL. Further, the LD99 in [1] is 77 µM; with DU-145, 39 µM; in the data set with MCF7 it was over 100 µM; in the data set with NFF, over 100 µM; in the data set on Tritrichomonas foetus it was over 100 µM; with Giardia intestinalis, 39 µM. The result in the data set with Penicillium brasilianum [5] and in the data set with Penicillium brasilianum [6] was inactive.

Broadly, the MIC is the lowest concentration found to suppress growth.
